From patent US20260374818A1, “CATIONIC PEPTIDES WITH BROAD SPECTRUM ACTIVITY” (priority 2023, published 2026)
Read-outs that look alike come from different tables or passages of the source.

Legend:
[1] = test system: P. aeruginosa PAO1 biofilms; assay: Checkerboard biofilm synergy of AB103-D with antimicrobials, PAO1; type: cell-based, Pseudomonas aeruginosa; conditions: for FIC against biofilms: antibiotic used with AB103-D, ≤0.5 synergy; for Fold Decrease in concentration of AB103-D: in combination of antibiotic with AB103-D; for Fold Decrease in concentration of AB103-D / Fold Decrease in concentration of Antibiotic: PAO1; for Fold Decrease in concentration of Antibiotic: in combination with AB103-D
[2] = test system: P. aeruginosa PAO1 planktonic cells; assay: MIC of antibiotics against planktonic cells, PAO1; type: cell-based, Pseudomonas aeruginosa; conditions: for MIC against planktonic cells in BM2 medium: PAO1, BM2; for MIC against planktonic cells in MHB medium: PAO1, MHB; for MIC: Pseudomonas aeruginosa
[3] = test system: MRSA USA 300 LAC planktonic cells; assay: MIC of antibiotics against planktonic cells, MRSA; type: cell-based, methicillin resistant Staphylococcus aureus; conditions: for MIC in 10% TSB, 0.1% glucose / MIC in MHB medium: MRSA planktonic; for MIC: Staphylococcus aureus
[4] = test system: MRSA USA 300 LAC biofilms; assay: Checkerboard biofilm synergy of AB103-D with antimicrobials, MRSA; type: cell-based, methicillin resistant Staphylococcus aureus; conditions: for Biofilm MBIC in 10% TSB, 0.1% glucose / Fold decrease AB103-D / Fold decrease Antibiotic: MRSA; for FIC: antibiotic used with AB103-D, MRSA USA 300 LAC, ≤0.5 synergy; for Fold decrease AB103-D: in combination of antibiotic with AB103-D; for Fold decrease Antibiotic: in combination with AB103-D
[5] = antibiotic alone, PAO1, BM2, at least 70% reduction
[6] = antibiotic alone, at least 70% reduction
[7] = PAO1, read-out: MIC against planktonic cells in BM2 medium
[8] = PAO1, read-out: MIC against planktonic cells in MHB medium
[9] = read-out: MIC in 10% TSB, 0.1% glucose

SMILES | FIC against biofilms ([1]; PAO1, BM2) | Fold Decrease in concentration of AB103-D [1] | Fold Decrease in concentration of Antibiotic [1] | FIC [4] | Fold decrease AB103-D [4] | Fold decrease Antibiotic [4] | MIC [2, 7] | MIC [2, 8] | MIC [3, 9] | MIC ([3]; read-out: MIC in MHB medium) | also measured
O=[N+]([O-])[O-].[Ag+] [AgNO3] | 1 | 2-fold | 2-fold | 1.13 | No | 8-fold | – | – | – | – | Antibiotic MBIC against biofilms [1, 5]: 0.03 µg/mL; MIC against planktonic cells in BM2 medium [2]: 0.03 µg/mL; MIC against planktonic cells in MHB medium [2]: 0.125 µg/mL; MIC in 10% TSB, 0.1% glucose ([3]; 10% TSB, 0.1% glucose): 0.25; MIC in MHB medium [3]: 0.25 µg/mL; Biofilm MBIC in 10% TSB, 0.1% glucose [4, 6]: 0.25
NCC[C@H](O)C(=O)N[C@@H]1C[C@H](N)[C@@H](O[C@H]2O[C@H](CN)[C@@H](O)[C@H](O)[C@H]2O)[C@H](O)[C@H]1O[C@H]1O[C@H](CO)[C@@H](O)[C@H](N)[C@H]1O [Amikacin] | 1.06 | No | 16-fold | 1 | 2-fold | 2-fold | 4 µg/mL | 0.5 µg/mL | 0.5 µg/mL | 0.5 µg/mL | –
CC[C@H]1OC(=O)[C@H](C)[C@@H](O[C@H]2C[C@@](C)(OC)[C@@H](O)[C@H](C)O2)[C@H](C)[C@@H](O[C@@H]2O[C@H](C)C[C@H](N(C)C)[C@H]2O)[C@](C)(O)C[C@@H](C)CN(C)[C@H](C)[C@@H](O)[C@]1(C)O [Azithromycin] | 0.75 | 2-fold | 4-fold | 0.38 | 8-fold | 4-fold | 128 µg/mL | 128 µg/mL | 4 µg/mL | 1 µg/mL | –
C[C@H]1[C@H](NC(=O)/C(=N\OC(C)(C)C(=O)O)c2csc(N)n2)C(=O)N1S(=O)(=O)O [Aztreonam] | 0.56 | 2-fold | 16-fold | 0.75 | 4-fold | 2-fold | 8 µg/mL | 4 µg/mL | > 128 µg/mL | > 128 µg/mL | –
CO/N=C(\C(=O)N[C@@H]1C(=O)N2C(C(=O)[O-])=C(C[N+]3(C)CCCC3)CS[C@H]12)c1csc(N)n1 [Cefepime] | 0.56 | 2-fold | 16-fold | 0.38 | 8-fold | 4-fold | 0.5 µg/mL | 1 µg/mL | 8 µg/mL | 8 µg/mL | –
CC(C)(O/N=C(\C(=O)N[C@@H]1C(=O)N2C(C(=O)[O-])=C(C[n+]3ccccc3)CS[C@H]12)c1csc(N)n1)C(=O)O [Ceftazidime] | 0.5 | 4-fold | 4-fold | 0.5 | 4-fold | 4-fold | 2 µg/mL | 1 µg/mL | 64 µg/mL | 32 µg/mL | –
[H]/N=C(\N/C(=N/[H])NCCCCCCNC(=N)NC(=N)Nc1ccc(Cl)cc1)Nc1ccc(Cl)cc1 [Chlorhexidine] | 0.63 | 8-fold | 2-fold | 0.56 | 2-fold | 16-fold | 4 µg/mL | 3.12 µg/mL | 1 µg/mL | 0.4 µg/mL | –
O=C(O)c1cn(C2CC2)c2cc(N3CCNCC3)c(F)cc2c1=O [Ciprofloxacin] | 0.53 | – | – | 0.5 | – | – | – | – | – | – | –
CCC[C@@H]1C[C@@H](C(=O)N[C@@H]([C@H]2O[C@H](SC)[C@H](O)[C@@H](O)[C@H]2O)[C@H](C)Cl)N(C)C1 [Clindamycin] | 1 | 2-fold | 2-fold | 0.635 | 2-fold | 8-fold | > 256 µg/mL | > 256 µg/mL | 0.5 µg/mL | 0.125 µg/mL | –
O=C(O)CN(CCN(CC(=O)O)CC(=O)O)CC(=O)O [EDTA] | 1.02 | No | 64-fold | 0.38 | 4-fold | 8-fold | – | – | – | – | Antibiotic MBIC against biofilms [1, 5]: 128 µg/mL; MIC against planktonic cells in BM2 medium [2]: >256 µg/mL; MIC against planktonic cells in MHB medium [2]: >256 µg/mL; MIC in 10% TSB, 0.1% glucose ([3]; 10% TSB, 0.1% glucose): 128; MIC in MHB medium [3]: 64 µg/mL; Biofilm MBIC in 10% TSB, 0.1% glucose [4, 6]: 128
OO [H2O2] | 0.5 | 4-fold | 4-fold | 0.63 | 8-fold | 2-fold | – | – | – | – | Antibiotic MBIC against biofilms ([1]; PAO1, BM2, in %): 0.08%; MIC against planktonic cells in BM2 medium ([2]; in %): 0.08%; MIC against planktonic cells in MHB medium ([2]; in %): 0.01%; MIC in MHB medium ([3]; in %): 0.0018%; MIC in 10% TSB, 0.1% glucose ([3]; in %): 0.0025%; Biofilm MBIC in 10% TSB, 0.1% glucose ([4]; in %): 0.0025%
C[C@H]1COc2c(N3CCN(C)CC3)c(F)cc3c(=O)c(C(=O)O)cn1c23 [Levofloxacin] | 0.63 | 2-fold | 8-fold | 0.75 | 4-fold | 2-fold | – | 0.25 µg/mL | 8 µg/mL | 4 µg/mL | Antibiotic MBIC against biofilms [1, 5]: 0.125 µg/mL; MIC against planktonic cells in BM2 medium [2]: 0.125 µg/mL
C[C@@H](O)[C@H]1C(=O)N2C(C(=O)O)=C(S[C@@H]3CN[C@H](C(=O)N(C)C)C3)[C@H](C)[C@H]12 [Meropenem] | 1.06 | 16-fold | No | 0.31 | 16-fold | 4-fold | 0.06 µg/mL | 0.25 µg/mL | 0.25 µg/mL | 0.125 µg/mL | –
C/C(=C\C(=O)OCCCCCCCCC(=O)O)C[C@@H]1OC[C@H](C[C@@H]2O[C@H]2[C@@H](C)[C@H](C)O)[C@@H](O)[C@H]1O [Mupirocin] | – | No | No | 0.75 | 2-fold | 4-fold | > 128 µg/mL | > 256 µg/mL | 0.25 µg/mL | 0.125 µg/mL | –
CCn1cc(C(=O)O)c(=O)c2cc(F)c(N3CCNCC3)cc21 [Norfloxacin] | 1.13 | No | 8-fold | 0.5 | 4-fold | 4-fold | 0.25 µg/mL | 0.5 µg/mL | 32 µg/mL | 32 µg/mL | –
CCN1CCN(C(=O)N[C@@H](C(=O)N[C@@H]2C(=O)N3[C@@H]2SC(C)(C)[C@@H]3C(=O)O)c2ccccc2)C(=O)C1=O [Piperacillin] | 1 | 2-fold | 2-fold | 0.63 | 2-fold | 8-fold | 4 µg/mL | 8 µg/mL | 4 µg/mL | 4 µg/mL | –
NC[C@H]1O[C@H](O[C@H]2[C@H](O)[C@@H](O[C@H]3O[C@H](CO)[C@@H](O)[C@H](N)[C@H]3O)[C@H](N)C[C@@H]2N)[C@H](N)C[C@@H]1O [Tobramycin] | 1 | 2-fold | 2-fold | 0.38 | 8-fold | 4-fold | 2 µg/mL | 0.5 µg/mL | 0.125 µg/mL | 0.125 µg/mL | –
COc1cc(Cc2cnc(N)nc2N)cc(OC)c1OC [Trimethoprim] | 1 | 2-fold | 2-fold | 0.56 | 2-fold | 16-fold | 128 µg/mL | 256 µg/mL | 8 µg/mL | 2 µg/mL | –
CN[C@H](CC(C)C)C(=O)N[C@H]1C(=O)N[C@@H](CC(N)=O)C(=O)N[C@H]2C(=O)N[C@H]3C(=O)N[C@H](C(=O)N[C@H](C(=O)O)c4cc(O)cc(O)c4-c4cc3ccc4O)[C@H](O)c3ccc(c(Cl)c3)Oc3cc2cc(c3O[C@@H]2O[C@H](CO)[C@@H](O)[C@H](O)[C@H]2O[C@H]2C[C@](C)(N)[C@H](O)[C@H](C)O2)Oc2ccc(cc2Cl)[C@H]1O [Vancomycin] | 0.56 | 2-fold | 16-fold | 0.38 | 8-fold | 4-fold | 256 µg/mL | > 256 µg/mL | 0.25 µg/mL | 0.25 µg/mL | –
